Laboratory results as given in patent US11512089B2, “Substituted [1,2,4]triazolo[3,4-a]phthalazines as modulators of GABAA receptor activity” (SHANGHAI SIMR BIOTECHNOLOGY CO., LTD, priority 2018, dated 2022).
≈ marks a conversion by molar mass, not a printed value.

Columns and labels:
[1] = target: T1, α5-GABAA receptor (Homo sapiens, UniProt P18507+P31644); assay: Whole cell patch clamp, inverse agonism efficacy on GABA-induced current in HEK-293 cells expressing α5-GABAA receptor; assay type: cell-based; conditions: HEK293; compound 100 nM, GABA 0.05 μM; ratio to reference compound Example 7 in CN106854207A in the same batch
T1 construct: expressed in transfected cells; host or cells: HEK-293 (monoclonal, stably transfected)
Description: The inventors used electrophysiological methods to determine the inverse agonist efficacy of the substances to be tested. The detailed procedures are as follows:
(1) Different subunits of GABAA receptors were expressed in human embryonic kidney cells 293 (HEK293). The cells were cultured in a culture medium and used as a cell model for screening potential analgesics. The α, β and γ subunits are necessary to form complete functional GABAA receptors. In this example, the inventors have established the following cell model: (a) α5 subunit (protein sequence is GenBank accession number: NM_000810.3), (33 subunit (protein sequence is GenBank accession number: NM_000814.5) and γ2 subunit (protein sequence is GenBank accession number: NM_000816.3) were expressed in HEK-293 cell line at the same time, followed by screening the monoclonal cell line. This cell line contained α5-GABAA receptor and had complete GABAA receptor function.
(2) The monoclonal stably transfected HEK-293 cells expressing α5-GABAA receptor were cultured in 10 cm culture dishes. The cells were passaged after reaching 80-90% confluence. During passaging, the culture medium was removed and discarded, 3 mL of DPBS (phosphate buffered saline, Gibco™) was added to the dishes, the dishes were shaken slightly, and DPBS was removed and discarded. 1 mL of trypsin (TrypLE Express, Gibco™) was added and the cells were digested at 37° C. for 1-2 minutes. Then 3 mL of complete medium (DMEM+10% FBS (Gibco™)) was added and the cells at the bottom of the culture dishes were dispersed. The cell suspension were transferred to a 15 mL centrifugal tube (Corning™) and then centrifuged at 200 g for 3 minutes. The supernatant was discarded, 4 mL of complete medium was added, and the cells were resuspended by gently blowing. The cell suspension was diluted by 1:5 or 1:10 for subculturing. The cell suspension was diluted by 1:12 for electrophysiology experiment, and added to a 24 well plate (Corning™) with a glass slide pre-treated with poly-D-lysine placed thereon; the experiment was initiated after the cells were adhered to the slide. The cells for electrophysiology experiment were maintained in culture for no more than 48 hours before use.
(3) Compound concentration: for screening, all compounds were diluted to a final concentration of 100 nM and the concentration of GABA was 0.05 μM. The compounds were at the concentration of 0.3 nM, 3 nM, 10 nM, 30 nM, 100 nM and 300 nM in dose-inverse agonism efficacy (%) experiment. The whole cell patch clamp technique was used in electrophysiology experiments, which can refer to the literature (I. Lecker, Y. Yin, D. S. Wang and B. A. Orser, (2013) Potentiation of GABAA receptor activity by volatile anaesthetics is reduced by α5-GABAA receptor-preferring inverse agonists, British Journal of Anaesthesia 110 (S1): i73-i81). The extracellular solution (ECS) contained: 150 mM NaCl, 5 mM KCl, 2.5 mM CaCl2, 1 mM MgCl2, 10 mM HEPES and 10 mM glucose (pH 7.4); Patch electrodes were filled with an intracellular solution containing: 140 mM CsCl, 11 mM EGTA, 10 mM HEPES, 2 mM CaCl2, 1 mM MgCl2, 4 mM MgATP, 2 mM TEA (pH 7.3). The currents were recorded by an EPC-10 amplifier and the PatchMaster software (HEKA). Patch electrodes with a resistance of 4-6 MΩ were pulled from borosilicate glass. The ALA-VC3-8PP™ system was used for extracellular administration. Separate cells that grew independently was selected for recording. During recording, the membrane voltage was clamped at −60 mV. During experiment, the cells were firstly perfused with ECS for 20 seconds. When the baseline reached to a stable state, the cells were then perfused with GABA solution. Then the current induced by GABA could be detected. After about 20 to 40 seconds, the current was stable. ECS was switched to compounds solution and the effects of the compounds were detected. At last, the perfusion solution was switched to ECS. […]

[2] = Kinetic solubility in 50 mM phosphate buffer pH 7.4; assay type: physicochemical; conditions: aqueous buffer, kinetic from dmso stock, 50 mM phosphate buffer pH 7.4, 2% DMSO, room temperature
Description: (§1) 50 mM phosphate buffer pH=7.4: 0.39 g of NaH2PO4.2H2O, and 1.4025 g of Na2HPO4 were weighted and placed in an erlenmeyer flask, 240 mL of water was added. The solid was dissolved and mixed thoroughly, the pH value was adjusted to 7.4 with 10M NaOH solution, and the resulting solution was transferred to a 250 mL volumetric flask, followed by adding water to the mark.
(§2) Waters e2695 HPLC high performance liquid chromatography, Mettler XSE105 analytical balance.
(§3) Firstly, a 10 mM stock solution with DMSO as the solvent was prepared, and was diluted with a diluent (ACN: PB buffer 50:50) into 1 μM-200 μM as standard solution.
Kinetic solubility. 30 μL of the stock solution was placed in a 2 mL centrifuge tube, 1470 μL of 50 mM phosphate buffer (pH 7.4) (containing DMSO at a final concentration of 2%) was added. The mixture was shaken at room temperature (1000 rpm/min) for 24 hours, and then filtered. The filtrate was tested by high performance liquid chromatography (UV).

[3] = Thermodynamic solubility in 50 mM phosphate buffer pH 7.4; assay type: physicochemical; conditions: aqueous buffer, thermodynamic from solid, 50 mM phosphate buffer pH 7.4, room temperature
Description: as §1, §2, §3
Thermodynamic solubility. About 1 mg of the sample was weighted, 1.5 mL of 50 mM phosphate buffer (pH 7.4) was added thereto, and the mixture was shaken at room temperature for 24 hours to ensure that the solution reached a state of saturation. The solution was then filtered, and the filtrate was tested with high-performance liquid chromatography (UV).

[4] = target: T2, α5-GABAA (Homo sapiens, UniProt P31644); conditions: cited from earlier work
T2 sequence (P31644 32-462): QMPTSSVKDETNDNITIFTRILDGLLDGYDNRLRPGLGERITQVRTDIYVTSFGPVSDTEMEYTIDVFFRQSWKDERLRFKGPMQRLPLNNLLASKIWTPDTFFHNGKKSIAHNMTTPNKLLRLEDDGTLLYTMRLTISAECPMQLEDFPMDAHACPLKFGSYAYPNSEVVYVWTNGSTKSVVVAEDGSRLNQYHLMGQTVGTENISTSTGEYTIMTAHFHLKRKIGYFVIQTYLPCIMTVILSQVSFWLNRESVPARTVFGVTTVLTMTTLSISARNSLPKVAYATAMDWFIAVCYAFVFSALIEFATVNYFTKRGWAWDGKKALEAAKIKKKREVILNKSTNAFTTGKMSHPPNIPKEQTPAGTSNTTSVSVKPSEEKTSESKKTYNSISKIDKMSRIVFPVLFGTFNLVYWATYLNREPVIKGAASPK

[5] = Pharmacokinetic experiment on rats, oral; assay type: in vivo; conditions: rat; male SD rats, po 1 mg/kg, 50% PEG400/50% water, plasma
Description: In the pharmacokinetic experiment on rats, the maximum drug concentration (Cmax) in the blood was determined to evaluate the absorption of the compounds in rats. All rats fasted overnight before administration; the test compounds were dissolved and administered orally (po, intragastric administration) to male SD rats, with 3 rats in each group. After administration of the test compounds, blood was collected by jugular vein puncture at […] with 0.25 mL per sample. The plasma drug concentration was determined by LC-MS/MS method, and the pharmacokinetic parameters were calculated by Phoenix WinNonlin7.0. The dose was 1 mg/kg, and the menstruum was 50% PEG400/50% water.

T1 sequence (P28472 26-473 partner, one chain of several): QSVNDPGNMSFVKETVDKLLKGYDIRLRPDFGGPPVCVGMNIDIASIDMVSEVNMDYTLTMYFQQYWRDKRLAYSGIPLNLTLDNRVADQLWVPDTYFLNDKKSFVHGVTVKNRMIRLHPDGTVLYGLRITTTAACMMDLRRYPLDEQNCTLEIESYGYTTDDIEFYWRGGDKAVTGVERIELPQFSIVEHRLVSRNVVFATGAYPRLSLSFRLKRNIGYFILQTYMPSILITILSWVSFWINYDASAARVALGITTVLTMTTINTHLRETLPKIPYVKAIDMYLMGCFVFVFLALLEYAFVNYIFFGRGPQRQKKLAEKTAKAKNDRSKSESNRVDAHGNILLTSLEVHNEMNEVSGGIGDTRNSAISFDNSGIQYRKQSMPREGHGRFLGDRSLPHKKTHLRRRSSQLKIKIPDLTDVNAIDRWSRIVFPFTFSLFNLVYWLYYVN
T1 sequence (P18507 40-467 isoform P18507-1 limits assumed, one chain of several): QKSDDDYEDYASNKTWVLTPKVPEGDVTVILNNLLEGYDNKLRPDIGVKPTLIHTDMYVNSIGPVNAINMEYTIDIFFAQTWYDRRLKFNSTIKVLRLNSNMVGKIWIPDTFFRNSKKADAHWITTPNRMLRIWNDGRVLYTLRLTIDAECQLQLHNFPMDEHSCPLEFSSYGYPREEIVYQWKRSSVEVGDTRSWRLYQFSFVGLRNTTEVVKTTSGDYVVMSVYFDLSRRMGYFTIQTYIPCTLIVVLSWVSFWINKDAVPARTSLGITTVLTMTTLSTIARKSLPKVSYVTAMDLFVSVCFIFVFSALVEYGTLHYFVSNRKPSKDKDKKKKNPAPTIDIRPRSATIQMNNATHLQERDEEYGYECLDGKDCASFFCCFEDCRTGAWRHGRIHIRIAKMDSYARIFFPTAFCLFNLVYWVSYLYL

SMILES: CCNC(=O)c1ccc(COc2nn3c(-c4cc(COC)on4)nnc3c3ccccc23)nc1 [Compound 02, N-ethyl-6-[3-(5-methoxymethyl-isoxazol-3-yl)-[1,2,4]triazolo[3,4-a]phthalazin-6-yloxymethyl]-nicotinamide]
- Emax at 0.1 µM [1]: 78%
- solubility kinetic at 24 h [2]: 8.02 µg/mL (≈ 17.5 µM)
- solubility thermodynamic at 24 h [3]: 3.39 µg/mL (≈ 7.38 µM)

SMILES: COCc1cc(-c2nnc3c4ccccc4c(OCc4ccc(C(=O)NC(C)C)cn4)nn23)no1 [Compound 11, N-isopropyl-6-[3-(5-methoxymethyl-isoxazol-3-yl)-[1,2,4]triazolo[3,4-a]phthalazin-6-yloxymethyl]-nicotinamide]
- Emax at 0.1 µM [1]: 106%
- solubility kinetic at 24 h [2]: 9.23 µg/mL (≈ 19.5 µM)
- solubility thermodynamic at 24 h [3]: 4.4 µg/mL (≈ 9.29 µM)

SMILES: COCc1cc(-c2nnc3c4ccccc4c(OCc4ccc(C(=O)NC5CC5)cn4)nn23)no1 [Compound 12, N-cyclopropyl-6-[3-(5-methoxymethyl-isoxazol-3-yl)-[1,2,4]triazolo[3,4-a]phthalazin-6-yloxymethyl]-nicotinamide]
- Emax at 0.1 µM [1]: 94%
- solubility kinetic at 24 h [2]: 10.9 µg/mL (≈ 23.1 µM)
- solubility thermodynamic at 24 h [3]: 9.05 µg/mL (≈ 19.2 µM)

SMILES: COCc1cc(-c2nnc3c4ccccc4c(OCc4ccc(C(=O)N5CCC(F)(F)CC5)cn4)nn23)no1 [Compound 34]
- solubility kinetic at 24 h [2]: 4.6 µg/mL (≈ 8.59 µM)
- solubility thermodynamic at 24 h [3]: 4.4 µg/mL (≈ 8.22 µM)

SMILES: COCc1cc(-c2nnc3c4ccccc4c(OCc4ccc(C(=O)N(C)C)cn4)nn23)no1 [Compound 37]
- Emax at 0.1 µM [1]: 72.1%
- solubility kinetic at 24 h [2]: 91.9 µg/mL (≈ 200 µM)
- solubility thermodynamic at 24 h [3]: 84.7 µg/mL (≈ 184 µM)

SMILES: COCc1cc(-c2nnc3c4ccccc4c(OCc4ccc(C(=O)N5CCOCC5)cn4)nn23)no1 [Compound 38, {6-[3-(5-methoxymethyl-isoxazol-3-yl)-[1,2,4]triazolo[3,4-a]phthalazin-6-yloxymethyl]-pyridin-3-yl}-morpholin-4-methanone]
- Emax at 0.1 µM [1]: 93.4%
- solubility kinetic at 24 h [2]: 17.8 µg/mL (≈ 35.4 µM)
- solubility thermodynamic at 24 h [3]: 8.7 µg/mL (≈ 17.3 µM)

SMILES: COCc1cc(-c2nnc3c4ccccc4c(OCc4ccc(C(=O)N5CC(OC)C5)cn4)nn23)no1 [Compound 42]
- Emax at 0.1 µM [1]: 73.3%
- solubility kinetic at 24 h [2]: 5.89 µg/mL (≈ 11.7 µM)
- solubility thermodynamic at 24 h [3]: 6.02 µg/mL (≈ 12 µM)

SMILES: CCOC(=O)c1ncn2c1[C@@H]1CCCN1C(=O)c1cc(OC)ccc1-2 [L-655,708]
- inhibition efficacy of the highest dose on the current induced by GABA ([4]; GABA concentration 1 μM): 15%
- inhibition on the current induced by GABA ([4]; GABA concentration higher than 1 μM): no inhibition

SMILES: CCNC(=O)c1ccc(COc2nn3c(-c4cc(C)on4)nnc3c3ccccc23)nc1 [drawing 164, reference compound]
- solubility kinetic at 24 h [2]: 0.62 µg/mL (≈ 1.44 µM)
- solubility thermodynamic at 24 h [3]: < 0.5 µg/mL

SMILES: Cc1cc(-c2nnc3c4ccccc4c(OCc4ccc(C(=O)N5CCOCC5)cn4)nn23)no1 [drawing 171, reference compound]
- solubility kinetic at 24 h [2]: 1.95 µg/mL (≈ 4.14 µM)
- solubility thermodynamic at 24 h [3]: 1.7 µg/mL (≈ 3.61 µM)

SMILES: CCNC(=O)c1ccc(COc2nn3c(-c4cc(COC)on4)nnc3c3ccccc23)nc1 [drawing 172]
- Cmax [5]: 24.7 ng/mL

SMILES: CCNC(=O)c1ccc(COc2nn3c(-c4cc(C)on4)nnc3c3ccccc23)nc1 [drawing 173, reference compound]
- Cmax [5]: 19 ng/mL

SMILES: COCc1cc(-c2nnc3c4ccccc4c(OCc4ccc(C(=O)N5CCOCC5)cn4)nn23)no1 [drawing 174]
- Cmax [5]: 48 ng/mL

SMILES: Cc1cc(-c2nnc3c4ccccc4c(OCc4ccc(C(=O)N5CCOCC5)cn4)nn23)no1 [drawing 175, reference compound]
- Cmax [5]: 22.4 ng/mL

SMILES: COCCNC(=O)c1ccc(COc2nn3c(-c4cc(C)on4)nnc3c3ccccc23)nc1 [reference compound]
- solubility kinetic at 24 h [2]: 0.92 µg/mL (≈ 2 µM)
- solubility thermodynamic at 24 h [3]: 1.5 µg/mL (≈ 3.26 µM)

SMILES: Cc1cc(-c2nnc3c4ccccc4c(OCc4ccc(C(=O)NC(C)C)cn4)nn23)no1 [reference compound]
- solubility kinetic at 24 h [2]: 2.2 µg/mL (≈ 4.96 µM)
- solubility thermodynamic at 24 h [3]: 1.8 µg/mL (≈ 4.06 µM)

SMILES: Cc1cc(-c2nnc3c4ccccc4c(OCc4ccc(C(=O)NC5CC5)cn4)nn23)no1 [reference compound]
- solubility kinetic at 24 h [2]: 2.16 µg/mL (≈ 4.89 µM)
- solubility thermodynamic at 24 h [3]: 0.82 µg/mL (≈ 1.86 µM)

SMILES: Cc1cc(-c2nnc3c4ccccc4c(OCc4ccc(C(=O)NCC(F)F)cn4)nn23)no1 [reference compound]
- solubility kinetic at 24 h [2]: < 0.46 µg/mL
- solubility thermodynamic at 24 h [3]: < 0.46 µg/mL

SMILES: Cc1cc(-c2nnc3c4ccccc4c(OCc4ccc(C(=O)N5CCC(F)(F)CC5)cn4)nn23)no1 [reference compound]
- solubility kinetic at 24 h [2]: 0.97 µg/mL (≈ 1.92 µM)
- solubility thermodynamic at 24 h [3]: 0.98 µg/mL (≈ 1.94 µM)
